Measurements from ChEMBL document CHEMBL5380850, “Discovery of the First Raptor (Regulatory-Associated Protein of mTOR) Inhibitor as a New Type of Antiadipogenic Agent” (J Med Chem, 2023).
The source made the active and inactive calls. No cut-off for these calls is given here.

Tests used:
3T3-L1 [1] = experiment: Anti-adipogenic activity against mouse 3T3-L1 cells at terminal differentiation stage assessed as decrease in triglyceride level at 1 uM and measured on 6 to 9 days by Oil Red O staining based spectroscopic analysis; type: functional, cell-based; conditions: time 6-9 day
3T3-L1 [2] = experiment: Anti-adipogenic activity against mouse 3T3-L1 cells assessed as decrease in triglyceride level at 1 uM by Oil Red O staining based spectroscopic analysis; type: functional; set-up: scale not given: the % may be the effect or the level left
3T3-L1 [3] = experiment: Anti-adipogenic activity against mouse 3T3-L1 cells assessed as decrease in triglyceride level by Oil Red O staining based spectroscopic analysis; type: functional, cell-based
[4] = Cytotoxicity against mouse 3T3-L1 cells assessed as reduction in cell viability incubated for 24 hrs by MTT assay; type: toxicity, cell-based
[5] = Selectivity index, ratio of IC50 for cytotoxicity against mouse 3T3-L1 cells to EC50 for anti-adipogenic activity against mouse 3T3-L1 cells; type: cell-based; conditions: read-out: Ratio IC50/EC50
3T3-L1 [6] = experiment: Anti-adipogenic activity against mouse 3T3-L1 cells assessed as downregulation of PPARgamma mRNA expression level at 0.1 to 1 uM incubated for 24 hrs by RT-qPCR analysis; type: functional, cell-based; conditions: dose 0.1-1 µM
3T3-L1 [7] = experiment: Anti-adipogenic activity against mouse 3T3-L1 cells assessed as downregulation of C/EBPalpha mRNA expression level at 0.1 to 1 uM incubated for 24 hrs by RT-qPCR analysis; type: functional, cell-based; conditions: dose 0.1-1 µM
3T3-L1 [8] = experiment: Anti-adipogenic activity against mouse 3T3-L1 cells assessed as downregulation of C/EBPbeta mRNA expression level at 0.1 to 1 uM incubated for 24 hrs by RT-qPCR analysis; type: functional, cell-based; conditions: dose 0.1-1 µM
3T3-L1 [9] = experiment: Anti-adipogenic activity against mouse 3T3-L1 cells assessed as downregulation of C/EBPdelta mRNA expression level at 0.1 to 1 uM incubated for 24 hrs by RT-qPCR analysis; type: functional, cell-based; conditions: dose 0.1-1 µM
3T3-L1 [10] = experiment: Anti-adipogenic activity against mouse 3T3-L1 cells assessed as downregulation of FAS protein expression level at 0.1 to 1 uM incubated for 6 days by Western blot analysis; type: functional, cell-based; conditions: dose 0.1-1 µM, time 6.0 day
3T3-L1 [11] = experiment: Anti-adipogenic activity against mouse 3T3-L1 cells assessed as downregulation of ACC protein expression level at 0.1 to 1 uM incubated for 6 days by Western blot analysis; type: functional, cell-based; conditions: dose 0.1-1 µM, time 6.0 day
Mus musculus [12] = experiment: Anti-obesity activity in high fat diet-induced obese C57BL/6J mouse assessed as reduction in visceral fat content by measuring inguen white adipose tissue weight at 40 mg/kg, ip administered every two days for 46 days; type: functional, organism-based; conditions: time 46.0 day
Mus musculus [13] = experiment: Anti-obesity activity in high fat diet-induced obese C57BL/6J mouse assessed as reduction in visceral fat content by measuring perirenal white adipose tissue weight at 40 mg/kg, ip administered every two days for 46 days; type: functional, organism-based; conditions: time 46.0 day
Mus musculus [14] = experiment: Anti-obesity activity in high fat diet-induced obese C57BL/6J mouse model assessed as reduction in blood glucose level at 40 mg/kg, ip administered every two days for 5 weeks pretreated with compound and followed by insulin stimulation and measured upto 120 mins by insulin tolerance test; type: functional, organism-based
Mus musculus [15] = experiment: Anti-obesity activity in high fat diet-induced obese C57BL/6J mouse model assessed as reduction in hepatic steatosis by measuring lipid deposition at 40 mg/kg, ip administered every two days for 46 days; type: functional, organism-based; conditions: time 46.0 day
Mus musculus [16] = experiment: Anti-obesity activity in high fat diet-induced obese C57BL/6J mouse model assessed as increase in COX4 expression level in liver at 40 mg/kg, ip administered every two days for 46 days by immunohistochemical analysis; type: functional, organism-based; conditions: time 46.0 day
[17] = molecular target: Serine/threonine-protein kinase mTOR (Mus musculus) (UniProt Q9JLN9); experiment: Inhibition of mTOR signalling in mouse 3T3-L1 cells assessed as mTOR phosphorylation at S2481 residue at 0.1 to 10 uM incubated for 24 hrs by Western blot analysis; type: cell-based; conditions: dose 0.1-10 µM
[18] = molecular target: Serine/threonine-protein kinase mTOR (Mus musculus) (UniProt Q9JLN9); experiment: Inhibition of mTOR signalling in mouse 3T3-L1 cells assessed as […] of 4E-BP1 phosphorylation at 0.1 to 10 uM incubated for 24 hrs by Western blot analysis; type: cell-based; conditions: dose 0.1-10 µM
[19] = molecular target: Serine/threonine-protein kinase mTOR (Mus musculus) (UniProt Q9JLN9); experiment: Inhibition of mTOR signalling in mouse 3T3-L1 cells assessed as downregulation of S6K1 phosphorylation at 0.1 to 10 uM incubated for 24 hrs by Western blot analysis; type: cell-based; conditions: dose 0.1-10 µM
[20] = molecular target: Serine/threonine-protein kinase mTOR (Mus musculus) (UniProt Q9JLN9); experiment: Inhibition of mTOR signalling in mouse 3T3-L1 cells assessed as upregulation of ATG3 expression level at 0.1 to 10 uM incubated for 24 hrs by Western blot analysis; type: cell-based; conditions: dose 0.1-10 µM
[21] = molecular target: Serine/threonine-protein kinase mTOR (Mus musculus) (UniProt Q9JLN9); experiment: Inhibition of mTOR signalling in mouse 3T3-L1 cells assessed as upregulation of ATG5 expression level at 0.1 to 10 uM incubated for 24 hrs by Western blot analysis; type: cell-based; conditions: dose 0.1-10 µM
[22] = molecular target: Serine/threonine-protein kinase mTOR (Mus musculus) (UniProt Q9JLN9); experiment: Inhibition of mTOR signalling in mouse 3T3-L1 cells assessed as upregulation of LC3II expression level at 0.1 to 10 uM incubated for 24 hrs by Western blot analysis; type: cell-based; conditions: dose 0.1-10 µM
Mus musculus [23] = experiment: In vivo inhibition of mTOR signalling in high fat diet-induced obese C57BL/6J mouse model assessed as decrease in mTOR phosphorylation at S2481 in inguen white adipose tissue at 40 mg/kg, ip administered every two days for 46 days by Western blot analysis; type: functional, organism-based; conditions: time 46.0 day
3T3-L1 [24] = experiment: Anti-adipogenic activity in SiRNA mediated Raptor knockdown mouse 3T3-L1 cells assessed as FAS expression level at 10 uM by Western blot analysis; type: functional, cell-based
mTORC1 (Mus musculus) [25] = molecular target: mTORC1 (Mus musculus) (UniProt Q9JLN9); experiment: Inhibition of mTORC1 formation in mouse 3T3-L1 cells assessed as decrease in Raptor/mLST8 interaction at 10 uM incubated for 24 hrs by reciprocal co-immunoprecipitation assay; type: cell-based
mTORC1 (Mus musculus) [26] = molecular target: mTORC1 (Mus musculus) (UniProt Q9JLN9); experiment: Inhibition of mTORC1 formation in mouse 3T3-L1 cells assessed as decrease in S6K1 expression level at 10 uM incubated for 24 hrs by Western blot analysis; type: cell-based
mTORC1 (Mus musculus) [27] = molecular target: mTORC1 (Mus musculus) (UniProt Q9JLN9); experiment: Inhibition of mTORC1 formation in mouse 3T3-L1 cells assessed as increase in 4E-BP1 expression level at 10 uM incubated for 24 hrs by Western blot analysis; type: cell-based
mTORC1 (Mus musculus) [28] = molecular target: mTORC1 (Mus musculus) (UniProt Q9JLN9); experiment: Inhibition of mTORC1 formation in mouse 3T3-L1 cells assessed as increase in phosphorylated-4E-BP1 expression level at 10 uM incubated for 24 hrs by Western blot analysis; type: cell-based
mTORC1 (Mus musculus) [29] = molecular target: mTORC1 (Mus musculus) (UniProt Q9JLN9); experiment: Inhibition of mTORC1 formation in siRNA mediated Raptor knockdown mouse 3T3-L1 cells assessed as decrease in 4E-BP1 expression level at 10 uM incubated for 24 hrs by Western blot analysis; type: cell-based
mTORC1 (Mus musculus) [30] = molecular target: mTORC1 (Mus musculus) (UniProt Q9JLN9); experiment: Inhibition of mTORC1 formation in siRNA mediated Raptor knockdown mouse 3T3-L1 cells assessed as decrease in phosphorylated 4E-BP1 expression level at 10 uM incubated for 24 hrs by Western blot analysis; type: cell-based
3T3-L1 [31] = experiment: Anti-adipogenic activity in mouse 3T3-L1 cells assessed as increase in co-localization of lipid droplets and autophagolysosomes at 10 uM by Bodipy and LysoTracker staining based immunofluorescence analysis; type: functional, cell-based
3T3-L1 [32] = experiment: Anti-adipogenic activity in siRNA-mediated LC3B knockdown mouse 3T3-L1 cells assessed as decrease in triglyceride level at 10 uM by Oil Red O staining based microscopic analysis; type: functional, cell-based
[33] = molecular target: Regulatory-associated protein of mTOR (Mus musculus) (UniProt Q8K4Q0); experiment: Binding affinity to Raptor in mouse 3T3-L1 cells assessed thermal stabilization at 10 uM incubated 30 mins by […] analysis
Chain of Regulatory-associated protein of mTOR (Mus musculus) (Q8K4Q0 whole entry, looked up): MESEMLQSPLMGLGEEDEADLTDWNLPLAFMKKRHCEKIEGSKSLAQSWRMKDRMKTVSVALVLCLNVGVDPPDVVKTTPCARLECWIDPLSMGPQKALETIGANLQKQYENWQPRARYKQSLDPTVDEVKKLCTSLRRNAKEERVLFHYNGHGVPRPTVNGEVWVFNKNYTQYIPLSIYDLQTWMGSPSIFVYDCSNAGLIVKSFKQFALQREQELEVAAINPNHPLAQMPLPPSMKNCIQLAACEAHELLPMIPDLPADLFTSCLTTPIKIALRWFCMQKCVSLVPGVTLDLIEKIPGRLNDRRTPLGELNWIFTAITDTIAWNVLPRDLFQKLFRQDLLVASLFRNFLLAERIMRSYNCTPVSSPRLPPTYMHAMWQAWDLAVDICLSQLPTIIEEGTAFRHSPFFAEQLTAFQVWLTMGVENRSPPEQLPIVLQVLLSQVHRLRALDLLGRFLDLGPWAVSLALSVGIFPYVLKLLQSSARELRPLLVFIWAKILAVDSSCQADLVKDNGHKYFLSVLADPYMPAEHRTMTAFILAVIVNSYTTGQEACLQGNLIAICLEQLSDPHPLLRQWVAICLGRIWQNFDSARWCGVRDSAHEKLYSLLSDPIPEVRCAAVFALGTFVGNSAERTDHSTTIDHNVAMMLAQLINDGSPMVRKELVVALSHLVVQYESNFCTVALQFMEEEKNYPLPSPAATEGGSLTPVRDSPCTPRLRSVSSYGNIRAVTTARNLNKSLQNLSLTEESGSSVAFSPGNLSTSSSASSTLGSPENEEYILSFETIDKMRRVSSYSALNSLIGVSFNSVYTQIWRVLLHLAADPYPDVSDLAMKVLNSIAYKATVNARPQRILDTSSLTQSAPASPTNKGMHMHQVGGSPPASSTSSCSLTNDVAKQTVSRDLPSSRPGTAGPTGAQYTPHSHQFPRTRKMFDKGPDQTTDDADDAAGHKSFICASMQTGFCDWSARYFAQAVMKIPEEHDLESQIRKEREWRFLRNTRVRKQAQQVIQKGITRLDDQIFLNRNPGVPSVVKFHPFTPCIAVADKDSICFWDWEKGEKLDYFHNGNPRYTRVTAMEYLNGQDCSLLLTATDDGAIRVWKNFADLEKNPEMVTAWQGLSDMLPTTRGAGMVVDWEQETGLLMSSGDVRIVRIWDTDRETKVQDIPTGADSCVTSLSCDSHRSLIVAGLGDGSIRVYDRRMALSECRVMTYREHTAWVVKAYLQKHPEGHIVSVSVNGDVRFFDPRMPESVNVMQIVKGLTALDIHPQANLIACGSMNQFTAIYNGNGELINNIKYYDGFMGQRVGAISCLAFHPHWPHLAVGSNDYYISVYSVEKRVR

For C=C(C)[C@@]12OC3(c4ccccc4)O[C@@H]1[C@@H]1[C@H](O)[C@](Cl)(COC(=O)c4ccccc4)[C@@H](O)[C@]4(O)C(=O)C(C)=C[C@H]4[C@@]1(O3)[C@H](C)[C@H]2OC(C)=O, the Activity (3T3-L1 [1]) was “Active”, the Activity (3T3-L1 [2]) was greater than 50% and the EC50 (3T3-L1 [3]) was 0.097 µM. For the same compound, the IC50 at 24 h [4] was greater than 100 µM, the selectivity ratio [5] was greater than 1030 and the Activity (3T3-L1 [6]) was “Active”. The Activity (3T3-L1 [7]) was “Active”, the Activity (3T3-L1 [8]) was “Active” and the Activity (3T3-L1 [9]) was “Active”. For the same compound, the Activity (3T3-L1 [10]) was “Active”, the Activity (3T3-L1 [11]) was “Active” and the Activity (Mus musculus [12]) was “Active”. The Activity (Mus musculus [13]) was “Active”, the Activity (Mus musculus [14]) was “Active” and the Activity (Mus musculus [15]) was “Active”. For the same compound, the Activity (Mus musculus [16]) was “Active”, the inhibition [17] was “Active” and the inhibition [18] was “Active”. The inhibition [19] was “Active”, the inhibition [20] was “Active” and the inhibition [21] was “Active”. For the same compound, the inhibition [22] was “Active”, the inhibition (Mus musculus [23]) was “Active” and the Activity (3T3-L1 [24]) was “Active”. The inhibition (mTORC1 (Mus musculus) [25]) was “inactive”, the inhibition (mTORC1 (Mus musculus) [26]) was “Active” and the inhibition (mTORC1 (Mus musculus) [27]) was “Active”. The inhibition (mTORC1 (Mus musculus) [28]) was “Active”, the inhibition (mTORC1 (Mus musculus) [29]) was “Active” and the inhibition (mTORC1 (Mus musculus) [30]) was “Active”. The Activity (3T3-L1 [31]) was “inactive”, the Activity (3T3-L1 [32]) was “Active” and the Activity [33] was “Active”.
